According to patent US20200157092A1, “[1,2,4]-TRIAZOLO [1,5-A]-PYRIMIDINYL DERIVATIVES SUBSTITUTED WITH PIPERIDINE, […] […] OGA INHIBITORS” (priority 2017, published 2020):
Like-named read-outs stand apart in the source and are kept apart here.

Tests used:
[1] = biological target: T1, OGA (Homo sapiens, UniProt O60502); assay: OGA cellular assay: immunocytochemical detection of O-GlcNAcylated proteins in HEK293 cells inducible for P301L mutant human Tau; type: cell-based; conditions: for Emax: HEK293, read-out: Cellular Emax (%)
T1 construct: HEK293 cells inducible for P301L mutant human Tau (isoform 2N4R) were established at Janssen; endogenous in cells; host or cells: HEK293 cells inducible for P301L mutant human Tau (2N4R)
T1 sequence (O60502 1-916): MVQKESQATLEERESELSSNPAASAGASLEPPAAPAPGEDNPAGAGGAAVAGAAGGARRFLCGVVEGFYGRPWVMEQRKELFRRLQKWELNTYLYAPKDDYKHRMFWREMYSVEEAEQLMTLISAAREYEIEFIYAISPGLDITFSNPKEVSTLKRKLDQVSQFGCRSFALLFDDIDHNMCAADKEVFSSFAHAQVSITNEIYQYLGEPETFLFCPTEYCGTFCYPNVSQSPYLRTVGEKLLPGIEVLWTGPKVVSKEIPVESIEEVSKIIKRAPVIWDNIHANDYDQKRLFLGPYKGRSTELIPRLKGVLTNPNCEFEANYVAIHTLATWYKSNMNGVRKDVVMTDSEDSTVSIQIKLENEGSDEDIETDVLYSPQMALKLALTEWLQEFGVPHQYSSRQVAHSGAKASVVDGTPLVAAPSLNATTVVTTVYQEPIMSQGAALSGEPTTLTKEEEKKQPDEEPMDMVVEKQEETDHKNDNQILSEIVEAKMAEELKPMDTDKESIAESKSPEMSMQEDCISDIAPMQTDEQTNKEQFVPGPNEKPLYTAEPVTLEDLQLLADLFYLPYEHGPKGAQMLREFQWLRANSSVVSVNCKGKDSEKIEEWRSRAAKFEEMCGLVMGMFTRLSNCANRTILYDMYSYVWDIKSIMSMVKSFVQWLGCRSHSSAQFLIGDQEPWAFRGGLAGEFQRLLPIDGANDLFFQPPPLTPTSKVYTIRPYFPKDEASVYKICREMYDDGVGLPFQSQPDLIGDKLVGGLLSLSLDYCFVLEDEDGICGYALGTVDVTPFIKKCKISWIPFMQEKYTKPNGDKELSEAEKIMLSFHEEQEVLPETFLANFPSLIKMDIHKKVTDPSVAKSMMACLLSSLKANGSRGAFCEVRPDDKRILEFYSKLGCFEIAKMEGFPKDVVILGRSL

[2] = biological target: T2, recombinant human Meningioma Expressed Antigen 5 (MGEA5), also referred to as O-GlcNAcase (OGA) (Homo sapiens, UniProt O60502); assay: OGA biochemical assay: inhibition of FM-GlcNAc hydrolysis, fluorescence; protocol A (10 nM OGA, 1 h) or protocol B (2 nM OGA, 6 h); conditions: for IC50: read-out: Enzymatic hOGA, pIC50 (converted)
T2 construct: Full length OGA enzyme was purchased at OriGene (cat # TP322411); purchased OriGene TP322411
T2 sequence (O60502 1-916): T1 sequence (O60502 1-916)

[3] = Enzymatic protocol A (10 nM OGA, 1 h)
[4] = Enzymatic protocol B (2 nM OGA, 6 h)

Compound | EC50 [1] | Emax [1] | Emax [2, 3] | IC50 [2, 3] | melting point | Emax [2, 4] | IC50 [2, 4]
CC(=O)Nc1ncc(S(=O)(=O)N2CCO[C@H](c3ccnc4ncnn34)C2)s1 [Product 32] | > 10000 nM | 21.8% | 102% | 14.5 nM | 260.51 °C |  | 
CC(=O)Nc1ncc(S(=O)(=O)N2CCOC(c3cc(C(F)F)nc4ncnn34)C2)s1 (stereo not drawn) [Product 33] | > 10000 nM | 15.7% | 101% | 6.46 nM | 264.85 °C |  | 
CC(=O)Nc1ncc(S(=O)(=O)N2CCNC(c3cc(C(F)F)nc4ncnn34)C2)s1 (stereo not drawn) [Product 41] | > 10000 nM | 10.5% | 102% | 6.17 nM | 227.97 °C |  | 
CC(=O)Nc1ncc(CN2CCC(Cc3cnc4cc[nH]c4c3)C2)s1 (stereo not drawn) [Product 68] | 41.7 nM | 91.2% |  |  | 190.79 °C | 101% | 5.37 nM
CC(=O)Nc1ncc(CN2CC[C@H](Cc3nccn4c(C)cnc34)C2)s1 [Product 104] | 61.7 nM | 91.5% |  |  | 189.54 °C | 100% | 1.48 nM
CC(=O)Nc1ncc(CN2CC[C@H](Cc3cncc4nccn34)C2)s1 [Product 108] | 97.7 nM | 92.7% |  |  | 202.48 °C | 101% | 4.9 nM
